In one experiment the target is T1, HTRA1^FL (Homo sapiens, UniProt Q92743).
T1 construct: Human full-length HTRA1 (HTRA1^FL, Q23-P480); made in house; host or cells: Trichoplusia ni cells
Kind of experiment: HTRA1^FL enzyme inhibition assay with synthetic substrate H2-OPT. The format is biochemical. The method, then: Assays with the fluorescence-quenched synthetic substrate Mca-IRRVSYSFK(Dnp)K (H2-OPT)[38],[60] were carried out essentially as described. CKP stock solutions in DMSO were diluted in TNC buffer (dilution series for IC50 determinations, or final concentration of 2 µM for selectivity assay or as indicated for HTRA1/4 mutants) and incubated with enzymes in 96-well black optical bottom plates for 60 min at 37 °C. For selectivity experiments we used the 7mer-ABP as inhibitor, which was incubated with the proteases for 15 min at 37 °C. A 10 mM stock solution of H2-OPT in DMSO was diluted with water, prewarmed at 37 °C and then added to the CKP-enzyme mixtures. The final concentrations in the reaction mixtures were: 1 nM HTRA1^FL, 3 nM HTRA1^PD/PDZ, 1 nM HTRA1^PD, 1 nM HTRA2^PD/PDZ, 3 nM HTRA3^FL, 60 nM HTRA3^PD/PDZ, 6 nM HTRA4^FL, 1 µM HTRA4^PD/PDZ, 1 nM mouse HTRA1^PD, 25 nM HTRA1^PD-A202Y, 1 µM HTRA4^PD/PDZ-Y200A, 0.5 mM 7mer-ABP, 5 µM H2-OPT, and 0.25% DMSO. The kinetics of substrate cleavage was measured at 37 °C on a SpectraMax M5 microplate reader with excitation of 328 nm and emission of 393 nm. The determined initial rates of cleavage were expressed as percent of control (DMSO control) after subtracting the baseline rates (without enzyme). IC50 values were determined by Sigmoidal 4PL modeling of multiple data points from serial dilutions of CKPs using Prism 9 software (GraphPad). For selectivity assays with HTRA1-4^PD/PDZ constructs, the specific activities of the enzymes and enzyme:CKP inhibitor ratios were as follows: HTRA1^PD/PDZ, 12560 mRFU/min/nM – 1:667; HTRA2^PD/PDZ, 32300 mRFU/min/nM – 1:2000; HTRA3^PD/PDZ, 962 mRFU/min/nM – 1:33; HTRA4^PD/PDZ, 18 mRFU/min/nM – 1:2.

The next experiment addresses T2, HTRA1^PD(SA) (Homo sapiens, UniProt Q92743, S328A).
T2 construct: The protease domains of human HTRA1 (HTRA1^PD; D161-K379); made in house; host or cells: E. coli
Description: SPR binding kinetics to HTRA1^PD(SA). Particulars: mean ± S.D. of three or more independent experiments; for koff / kon: SPR Biacore S200, 25 °C, single cycle kinetics, 1:1 Langmuir model; for Kd: SPR, calculated from kon and koff, CPI up to 10 µM. The method, then:
Surface plasmon resonance (SPR) experiments were performed using a Biacore S200 instrument at 25 °C. His-tagged HTRA proteins were captured on a CM5 sensor chip using the His-capture kit (GE Healthcare). Protein concentrations used for immobilization were as follows; HTRA1^PD(SA), HTRA1^PD and HTRA1^PD-ABP 2 µg/ml with 60-s injections at 10 µl/min, HTRA2^PD/PDZ, HTRA3^PD/PDZ, and HTRA4^PD/PDZ 4 µg/ml with 60-s injections at 10 µl/min. Approximate immobilization levels of HTRA proteins were as follows; HTRA1^PD(SA) 700 RU, HTRA1^PD 900 RU, HTRA1^PD-ABP 900 RU, HTRA2^PD/PDZ 500 RU, HTRA3^PD/PDZ 500 RU, HTRA4^PD/PDZ 500 RU. All CKPs were prepared in HBS-EP buffer (0.01 M HEPES pH 7.4, 0.15 M NaCl, 3 mM EDTA, 0.005% v/v Surfactant P20). All CKP concentrations were injected for 120 s at a flow rate of 30 μl/min. A reference channel was subtracted from the HTRA-captured channel.
Binding kinetics of peptides to HTRA1^PD(SA) were determined by flowing six serial three-fold dilutions of peptide over the HTRA1^PD(SA) immobilized surface using a single cycle kinetics model. CKP maximum concentrations were as follows: 1A7, 1A8, 1C10, 2D5, and 3A7, 300 nM; 1G10-ENI and 1D3-ENI, 100 nM; 3B3, 3000 nM; and CPI, 10,000 nM. Data were analyzed using GE BIA evaluation software using a 1:1 Langmuir binding model. The KD values, calculated from the determined kon and koff values, were the mean ± S.D. of 3–4 independent experiments.

Data on five compounds can be found in paper PMC11111691, “Cystine-knot peptide inhibitors of HTRA1 bind to a cryptic pocket within the active site region” (Nature Communications, 2024).

The IC50 is the midpoint of a concentration-inhibition curve. Higher therefore signals a need for much substance. Usually Kd stands for the equilibrium constant for the complex coming apart.

Positions of bridges follow the written chain, without caps; N, C: chain ends. Residues, ends and D or L forms follow the SMILES beside them.

T2 sequence (Q92743 161-379 S328A): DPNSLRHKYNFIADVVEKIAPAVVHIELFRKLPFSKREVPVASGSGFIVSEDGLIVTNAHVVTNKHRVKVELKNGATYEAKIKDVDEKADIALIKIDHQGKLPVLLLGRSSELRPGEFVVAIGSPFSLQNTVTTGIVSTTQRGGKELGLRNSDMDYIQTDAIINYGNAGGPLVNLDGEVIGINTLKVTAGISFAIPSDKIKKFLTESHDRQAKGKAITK
T1 sequence (Q92743 23-480): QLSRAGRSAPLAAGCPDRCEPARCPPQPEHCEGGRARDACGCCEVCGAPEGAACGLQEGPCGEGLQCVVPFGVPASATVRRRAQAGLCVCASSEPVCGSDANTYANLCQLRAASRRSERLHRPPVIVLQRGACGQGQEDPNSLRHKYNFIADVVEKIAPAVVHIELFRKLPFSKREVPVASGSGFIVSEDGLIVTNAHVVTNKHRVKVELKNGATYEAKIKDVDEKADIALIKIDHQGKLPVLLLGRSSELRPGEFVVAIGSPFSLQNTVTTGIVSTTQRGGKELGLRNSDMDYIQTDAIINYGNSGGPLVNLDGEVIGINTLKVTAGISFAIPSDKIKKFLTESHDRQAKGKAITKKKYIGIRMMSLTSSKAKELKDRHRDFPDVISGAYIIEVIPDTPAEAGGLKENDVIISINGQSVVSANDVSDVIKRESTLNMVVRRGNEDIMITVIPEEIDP

In turn, `CC[C@H](C)[C@H](NC(=O)[C@H](CCC(N)=O)NC(=O)[C@H](CCCNC(=N)N)NC(=O)[C@H](CC(C)C)NC(=O)CNC(=O)[C@H](Cc1c[nH]c2ccccc12)NC(=O)CNC(=O)[C@@H]1CSSC[C@@H]2NC(=O)[C@H](CC(=O)O)NC(=O)[C@H](CC(=O)O)NC(=O)[C@H](Cc3c[nH]cn3)NC(=O)[C@H]([C@@H](C)O)NC(=O)[C@H](CCCCN)NC(=O)[C@@H]3CSSC[C@H](NC(=O)[C@H]([C@@H](C)O)NC(=O)[C@H](CCC(N)=O)NC(=O)[C@H](CSSC[C@H](NC(=O)[C@@H](NC(=O)[C@@H]4CCCN4C(=O)[C@H](CC(=O)O)NC(=O)[C@H](C)NC(=O)[C@@H](N)Cc4c[nH]cn4)[C@@H](C)CC)C(=O)NCC(=O)N[C@@H](Cc4c[nH]cn4)C(=O)N[C@@H](CCC(N)=O)C(=O)N3)NC(=O)[C@H](Cc3ccccc3)NC(=O)[C@H](Cc3c[nH]c4ccccc34)NC(=O)[C@H](C)NC(=O)CNC(=O)[C@H](CO)NC2=O)C(=O)N[C@@H](Cc2ccc(O)cc2)C(=O)N[C@@H](Cc2ccc(O)cc2)C(=O)N[C@@H](C)C(=O)N[C@@H]([C@@H](C)O)C(=O)N[C@@H](Cc2c[nH]c3ccccc23)C(=O)N[C@@H](CO)C(=O)N1)C(=O)N[C@@H](CC(=O)O)C(N)=O` [1A8.L1.2] (H-HADPICGHQCKTHDDCSGAWFCQTCYYATWSCGWGLRQID-NH2; disulfide 6-22, 10-25, 16-32) yielded an IC50 against HTRA1^FL of 3.2 ± 0.1 nM.

Take `CC[C@H](C)[C@H](NC(=O)[C@@H]1CCCN1C(=O)[C@H](CC(=O)O)NC(=O)[C@H](C)NC(=O)[C@@H](N)Cc1c[nH]cn1)C(=O)N[C@H]1CSSC[C@@H]2NC(=O)[C@H](Cc3ccccc3)NC(=O)[C@H](Cc3c[nH]c4ccccc34)NC(=O)[C@H](C)NC(=O)CNC(=O)[C@H](CO)NC(=O)[C@@H]3CSSC[C@@H](C(=O)NCC(=O)N4CCC[C@H]4C(=O)NCC(=O)N[C@@H](Cc4c[nH]c5ccccc45)C(=O)N[C@@H](CCCNC(=N)N)C(N)=O)NC(=O)[C@H](CO)NC(=O)[C@H](Cc4c[nH]c5ccccc45)NC(=O)[C@H]([C@@H](C)O)NC(=O)[C@H](C)NC(=O)[C@H](Cc4ccc(O)cc4)NC(=O)[C@H](Cc4ccc(O)cc4)NC(=O)[C@H](CSSC[C@H](NC(=O)[C@@H]4CCCN4C(=O)[C@H](CCCCN)NC(=O)[C@H](CC(N)=O)NC1=O)C(=O)N[C@@H](CCCCN)C(=O)N[C@@H]([C@@H](C)O)C(=O)N[C@@H](Cc1c[nH]cn1)C(=O)N[C@@H](CC(=O)O)C(=O)N[C@@H](CC(=O)O)C(=O)N3)NC(=O)[C@H](C)NC(=O)[C@H](CCC(N)=O)NC2=O` [1A7] (H-HADPICNKPCKTHDDCSGAWFCQACYYATWSCGPGWR-NH2; disulfide 6-22, 10-25, 16-32): on HTRA1^PD(SA), the koff is listed as 6.5 ± 0.7 s-1 x10-4, the kon is 9.4 ± 1.3 M-1 s-1 x104 and the Kd is 7 ± 0.5 nM.

Turning to `CC[C@H](C)[C@H](NC(=O)[C@@H]1CCCN1C(=O)[C@H](CC(=O)O)NC(=O)[C@H](C)NC(=O)[C@@H](N)Cc1c[nH]cn1)C(=O)N[C@H]1CSSC[C@@H]2NC(=O)[C@H](Cc3ccccc3)NC(=O)[C@H](Cc3c[nH]c4ccccc34)NC(=O)[C@H](C)NC(=O)CNC(=O)[C@H](CO)NC(=O)[C@@H]3CSSC[C@@H](C(=O)NCC(=O)N4CCC[C@H]4C(=O)N[C@@H](Cc4ccc(O)cc4)C(=O)N[C@H](C(=O)NCC(N)=O)C(C)C)NC(=O)[C@H](CCCNC(=N)N)NC(=O)[C@H](Cc4c[nH]c5ccccc45)NC(=O)[C@H](CC(N)=O)NC(=O)[C@H](C)NC(=O)[C@H](Cc4ccccc4)NC(=O)[C@H](Cc4ccc(O)cc4)NC(=O)[C@H](CSSC[C@H](NC(=O)[C@@H]4CCCN4C(=O)[C@H](CCCCN)NC(=O)[C@H](CC(N)=O)NC1=O)C(=O)N[C@@H](CCCCN)C(=O)N[C@@H]([C@@H](C)O)C(=O)N[C@@H](Cc1c[nH]cn1)C(=O)N[C@@H](CC(=O)O)C(=O)N[C@@H](CC(=O)O)C(=O)N3)NC(=O)[C@H](C)NC(=O)[C@H](CCC(N)=O)NC2=O` [3A7] (H-HADPICNKPCKTHDDCSGAWFCQACYFANWRCGPYVG-NH2; disulfide 6-22, 10-25, 16-32), on HTRA1^PD(SA), the koff turned out to be 2.8 ± 0.2 s-1 x10-4, the kon is recorded as 4.5 ± 0.3 M-1 s-1 x104 and the dissociation constant (Kd) is 6.2 ± 0.2 nM.

On to `CC[C@H](C)[C@H](NC(=O)[C@@H]1CCCN1C(=O)[C@H](CC(=O)O)NC(=O)[C@H](C)NC(=O)[C@@H](N)Cc1c[nH]cn1)C(=O)N[C@H]1CSSC[C@@H]2NC(=O)[C@H](Cc3ccccc3)NC(=O)[C@H](Cc3c[nH]c4ccccc34)NC(=O)[C@H](C)NC(=O)CNC(=O)[C@H](CO)NC(=O)[C@@H]3CSSC[C@@H](C(=O)N[C@@H](CCC(N)=O)C(=O)N[C@@H](Cc4c[nH]c5ccccc45)C(=O)N4CCC[C@H]4C(=O)N4CCC[C@H]4C(=O)N[C@@H](CCCNC(=N)N)C(=O)N[C@@H](Cc4c[nH]cn4)C(=O)N[C@@H](CCCNC(=N)N)C(=O)N[C@@H](CC(=O)O)C(N)=O)NC(=O)[C@H](CO)NC(=O)[C@H](Cc4c[nH]c5ccccc45)NC(=O)[C@H]([C@@H](C)O)NC(=O)[C@H](C)NC(=O)[C@H](Cc4ccc(O)cc4)NC(=O)[C@H](Cc4ccc(O)cc4)NC(=O)[C@H](CSSC[C@H](NC(=O)[C@@H]4CCCN4C(=O)[C@H](CCCCN)NC(=O)[C@H](CC(N)=O)NC1=O)C(=O)N[C@@H](CCCCN)C(=O)N[C@@H]([C@@H](C)O)C(=O)N[C@@H](Cc1c[nH]cn1)C(=O)N[C@@H](CC(=O)O)C(=O)N[C@@H](CC(=O)O)C(=O)N3)NC(=O)[C@H]([C@@H](C)O)NC(=O)[C@H](CCC(N)=O)NC2=O` [2D5] (H-HADPICNKPCKTHDDCSGAWFCQTCYYATWSCQWPPRHRD-NH2; disulfide 6-22, 10-25, 16-32), for which, on HTRA1^PD(SA), the koff turned out to be 1.0 ± 0.1 s-1 x10-4, the kon is recorded as 10.5 ± 0.9 M-1 s-1 x104 and the dissociation constant (Kd) was 0.94 ± 0.12 nM.

For `CC[C@H](C)[C@H](NC(=O)[C@@H]1CCCN1C(=O)[C@H](CC(=O)O)NC(=O)[C@H](C)NC(=O)[C@@H](N)Cc1c[nH]cn1)C(=O)N[C@H]1CSSC[C@@H]2NC(=O)[C@H](Cc3ccccc3)NC(=O)[C@H](Cc3c[nH]c4ccccc34)NC(=O)[C@H](C)NC(=O)CNC(=O)[C@H](CO)NC(=O)[C@@H]3CSSC[C@@H](C(=O)NCC(=O)N4CCC[C@H]4C(=O)NCC(=O)N[C@@H](CCCNC(=N)N)C(=O)N[C@@H](Cc4ccc(O)cc4)C(N)=O)NC(=O)[C@H](CO)NC(=O)[C@H](Cc4c[nH]c5ccccc45)NC(=O)[C@H]([C@@H](C)O)NC(=O)[C@H](C)NC(=O)[C@H](Cc4ccc(O)cc4)NC(=O)[C@H](Cc4ccc(O)cc4)NC(=O)[C@H](CSSC[C@H](NC(=O)[C@@H]4CCCN4C(=O)[C@H](CCCCN)NC(=O)[C@H](CC(N)=O)NC1=O)C(=O)N[C@@H](CCCCN)C(=O)N[C@@H]([C@@H](C)O)C(=O)N[C@@H](Cc1c[nH]cn1)C(=O)N[C@@H](CC(=O)O)C(=O)N[C@@H](CC(=O)O)C(=O)N3)NC(=O)[C@H](C)NC(=O)[C@H](CCC(N)=O)NC2=O` [1C10] (H-HADPICNKPCKTHDDCSGAWFCQACYYATWSCGPGRY-NH2; disulfide 6-22, 10-25, 16-32), at HTRA1^PD(SA), the koff worked out at 4.7 ± 0.1 s-1 x10-4, the kon was 7.7 ± 2.4 M-1 s-1 x104 and the dissociation constant (Kd) was 6.5 ± 2.2 nM.
